Entries after “also recorded” stand apart in the source; their conditions may differ. Like-named read-outs stand apart in the source and are kept apart here.
Experiments:
AMPA/kainate receptors [1] = test: PSI (inhibition of population spike) test in CA1 neurones of hippocampus; format: cell-based; conditions: non-cumulative IC50, rat hippocampus
Experimental: PSI (inhibition of population spike) test
The field potentials (population spike) evoked by electric stimulation of the Shaffer collateral comissural pathway were measured in the CAl neurones of rat hippocampus. The population spike can be inhibited by AMPA/kainate antagonists. The non-cumulative IC50 values are shown in Table I. /Tarnawa, I., Molnár, P., Gaál, L., Andrási, F.: Inhibition of hippocampal field potentials by GYKI 52466 in vitro and in vivo, Acta Physiol. Hung., 79(2), 163-9 (1992)/.

AMPA/kainate receptors [2] = test: QNTI (inhibition of quisqualate neurotoxicity) test; format: cell-based, rat; conditions: Inhibition of quisqualate neurotoxicity in primer cortical culture
Experimental: QNTI (inhibition of quisqualate neurotoxicity (test)
The method is based on the phenomenon that the neurotixic effect of quisqualate /i.e. (S)-alpha-amino-3,5-dioxo-1,2,4-oxadiazolidine-2-propanoic acid, an AMPA/kainate agonist/ on the primer telencephalic cell culture of the rat could be inhibited by AMPA/kainate antagonists. The test was performed as described in the literature /Kovács, A. D., Egyed, A.: Protection against non-NMDA receptor-mediated excitotoxicity by GYKI 52466 in mature telencephalic cultures of the rat, Neurobiology, 4, 59-72 (1996)/.

Acute toxicity = conditions: both sexes, mouse, in vivo
Experimental: The study was done in NMRI mice of both sexes, weighing 20 to 25 g, with 6 animals in each dose-group. The test compounds were applied at […], and the maximal per os and ip. doses were 500 mg/kg and 300 mg/kg, respectively. The cumulative lethality was recorded on day 7. The animals were kept under standard laboratory conditions.

male NMRI mice [3] = test: Muscle relaxant effect (inclined screen according to Hoppe); format: in vivo; conditions: ip.; for ED50: Mus musculus, determined at the time of maximal effect; for Muscle relaxant effect duration: time of last reading when the effect was at least 30%
Experimental: The assay was done according to Hoppe in male NMRI mice weighing 20 to 25 g, with 10 animals in each group /Hoppe, J. O., J. Pharmacol. Exp. Ther., 100, 333 (1950)/. Following the ip. treatment of animals, the number of mice showing muscle weakness were recorded at every 10 minutes in the first hour and at half hour intervals afterwards. The animals falling off the 60° inclined screen within 30 seconds were considered positive. ED50 values of the given compounds were determined at each time. The duration of effect was defined as the time of last reading when the effect was at least 30%.

male DBA/2j strain mice = test: Audiogenic seizure (AS) test; format: in vivo; conditions: for ED50: Mus musculus, 0.25 h
Experimental: Audiogenic seizure (AS) test
The experiments were carried out by the slightly modified method of De Sarro et al. /De Sarro, G. B., Croucher, M. J. and Meldrum, B. S.: Anticonvulsant action of DS 103-282, Neuropharm., 23, 525 (1984)/. Groups of 8 male DBA/2j strain mice weighing 7 to 14 g were treated ip. with the test substance in 10 ml/kg volume. 15 minutes later, the animals were placed into a covered glass container (30 cm in diameter) and exposed to a 14 kHz 120 dB tone for 60 s at the most. Seizure response was assessed using the following scale: 0=normal behaviour, 1=wild running, 2=clonus, 3=tonic flexor seizure, 4=tonic extensor seizure. The maximum response during the 60 s exposure was recorded for each animal. Lethality was also noted. The ED50 values were determined by the method of Litchfield and Wilcoxon concerning the inhibition of clonic seizures and tonic extensor convulsions.

male NMRI mice [4] = test: Global ischemia induced by magnesium chloride (gasping time); format: in vivo; conditions: for Effect in % (increase in gasping time): dose 30 mg/kg ip., 30 minutes before magnesium chloride iv.; for ID50 ip.: gasping time, calculated by linear regression
Experimental: Global Ischemia Induced by Magnesium Chloride
The experiments were carried out as described by Berga et al. /Berga, P., Beckett, P. R., Roberts, D. J., Llenas, J., Massingham, R.: Synergistic interactions between piracetam and dihydroergocristine in some animal models of cerebral hypoxia and ischemia, Arzneim.-Forsch., 36, 1314-1320 (1986)/. Groups of 10 male NMRI mice weighing 20 to 25 g were treated ip. with the test substance in […]. After 30 minutes, saturated aqueous magnesium chloride solution was applied iv. (5 ml/kg) resulting in an immediate cardiac arrest. The elapsed time between the iv. injection and the last gasping was measured (gasping time). The means of the treated groups were expressed as percent of control. Statistical analysis was done by ANOVA followed by DUNCAN test. The dose resulting in 50% descrease in gasping time (ID50) was calculated by linear regression.

male NMRI mice [5] = test: Maximal electroshock test (MES); format: in vivo; conditions: Inhibition of maximal electroshock, ip., 30 minutes before shock; for ED50: Mus musculus
Experimental: Maximal electroshock test (MES)
Male NMRI mice weighing 20 to 30 g were used for the method of Swinyard et al. /Swinyard, E. A., Brown, W. C. and Goodman, L.S.: Comparative assays of antiepileptic drugs in mice and rats, J. Pharmacol., 106, 319 (1952)//. The animals—10 in each group—were treated ip. either with various doses of the test substance or with vehicle. After 30 minutes, a 50 Hz, 40 mA electroshock was applied for 0.4 s through corneal electrodes. The number of animals that developed tonic extensor convulsion of the hind-limbs was registered, percent inhibition was calculated, and ED50 values were determined by the method of Litchfield and Wilcoxon /Litchfield, J. T., Wilcoxon, F. A.: A simplified method of evaluating dose-effect experiments, J. Pharmacol. Exp. Ther., 96, 99 (1949)/ and summarized in Table IV.

Row | Structure (SMILES) | IC50 (AMPA/kainate receptors [1]) | IC50 (AMPA/kainate receptors [2]) | ED50 (male NMRI mice [3]) | Muscle relaxant effect duration (male NMRI mice [3]) | Effect in % (increase in gasping time) (male NMRI mice [4]) | ID50 ip. (male NMRI mice [4]) | other results
1 | CC1(C#N)Cc2cc3c(cc2C(c2ccc([N+](=O)[O-])cc2)=NN1)OCO3 (racemic) [Example 58, (±)-8-Cyano-7,8-dihydro-8-methyl-5-(4-nitrophenyl)-9H-1,3-dioxolo/4,5-h//2,3/benzodiazepine] | – | – | – | – | – | – | melting point: 162 to 164 °C
2 | CC1(C#N)Cc2cc3c(cc2C(c2ccc([N+](=O)[O-])cc2)=NN1C(=O)CCl)OCO3 (racemic) [Example 73, (±)-8-Cyano-7,8-dihydro-7-chloroacetyl-8-methyl-5-(4-nitrophenyl)-9H-1,3-dioxolo/4,5-h//2,3/benzodiazepine] | 6.3 µM | 7.4 µM | 22.6 mg/kg | substantially longer; also recorded: higher than 4 hr | – | – | LD50 at 7 day (Acute toxicity; NMRI, ip, 300 mg/kg): ~300 mg/kg; LD50 at 7 day (Acute toxicity; NMRI, po, 500 mg/kg): > 500 mg/kg
3 | CC1(C#N)Cc2cc3c(cc2C(c2ccc(N)cc2)=NN1C(=O)CCNCCN1CCOCC1)OCO3 (racemic) [Example 89, (±)-5-(4-Aminophenyl)-8-cyano-7,8-dihydro-8-methyl-7-/3-(2-morpholinoethylamino)-propionyl/-9H-1,3-dioxolo/4,5-h//2,3/-benzodiazepine] | 3 µM | 5.4 µM | 31.3 mg/kg | 1 h | 117% | 7 mg/kg | AS convulsion tonic ED50 (male DBA/2j strain mice; Inhibition of sound induced seizure, tonic extensor convulsions, DBA/2j mice, ip., 15 minutes): The compound according to Example 89 was significantly more effective at the inhibition of maximal electroshock and sound induced tonic convulsions than the reference compound “A” as shown in Table TV.; ED50 (male DBA/2j strain mice; Inhibition of sound induced seizure, clonic seizures, DBA/2j mice, ip., 15 minutes, read-out: AS convulsion clonic ED50): 5.4 mg/kg; ED50 (male DBA/2j strain mice; Inhibition of sound induced seizure, tonic extensor convulsions, DBA/2j mice, ip., 15 minutes, read-out: AS convulsion tonic ED50): 1.2 mg/kg; LD50 at 7 day (Acute toxicity; NMRI, ip, 300 mg/kg): ~300 mg/kg; LD50 at 7 day (Acute toxicity; NMRI, po, 500 mg/kg): > 500 mg/kg; MES ED50 (male NMRI mice [5]): The compound according to Example 89 was significantly more effective at the inhibition of maximal electroshock and sound induced tonic convulsions than the reference compound “A” as shown in Table TV.; ED50 (male NMRI mice [5]): 2.3 mg/kg
4 | NC(=O)C1=NN=C(c2ccc(N)cc2)c2cc3c(cc2C1)OCO3 [Example 32, 5-(4-Aminophenyl)-9H-1,3-dioxolo/4,5-h//2,3/benzodiazepine-8-carboxylic amide] | – | – | – | – | – | – | MES ED50 (male NMRI mice [5]): 2.5 mg/kg
5 | N#CC1=NN=C(c2ccc(N)cc2)c2cc3c(cc2C1)OCO3 [Example 47, 5-(4-Aminophenyl)-8-cyano-9H-1,3-dioxolo/4,5-h//2,3/benzodiazepine] | – | – | – | – | 89% | 15 mg/kg | –
6 | Nc1ccc(C2=NN=C(c3nnn[nH]3)Cc3cc4c(cc32)OCO4)cc1 [Example 48, 5-(4-Aminophenyl)-8-(5-tetrazolyl)-9H-1,3-dioxolo/4,5-h//2,3/benzodiazepine] | – | – | – | – | – | – | melting point: 244 to 246 °C
7 | CC1=NN=C(c2ccc(N)cc2)c2cc3c(cc2C1)OCO3 [“A”, 8-Methyl-5-(4-aminophenyl)-9H-1,3-dioxolo/4,5-h/-/2,3/benzodiazepine, reference compound] | 9.1 µM | 12 µM | 24.5 mg/kg | 1 h | 55% | 30 mg/kg | ED50 (male DBA/2j strain mice; ip, read-out: AS convulsion clonic ED50): 4.3 mg/kg; ED50 (male DBA/2j strain mice; ip, read-out: AS convulsion tonic ED50): 3.6 mg/kg; LD50 at 7 day (Acute toxicity; po, NMRI mice, p.o., cumulative lethality on day 7, maximal dose 500 mg/kg, read-out: Appr. LD50 p.o.): 500 mg/kg; LD50 at 7 day (Acute toxicity; NMRI mice, ip., cumulative lethality on day 7, maximal dose 300 mg/kg, read-out: Appr- LD50 ip.): 392 mg/kg; ED50 (male NMRI mice [5]): 6.9 mg/kg

From patent US6562810B1, “8-substituted-9H-1,3-dioxolo/4,5-h//2,3/benzodiazepine derivatives, as AMPA/kainate receptor inhibitors” (Egis Gyogyszergyar RT., priority 1997, dated 2003)
